The text below walks through data of PMC5131886 (CPT: Pharmacometrics & Systems Pharmacology, 2016).

Several values for one entry are separate records, joined by “and”; a condition that tells them apart may be missing. Equal entries are not always repeated.

The test system of one series is plasma protein. As to conditions: cited from earlier work.
For series [1] the following is noted: cited from earlier work.
For the next series, the system named is VEGFR. Conditions: cited from earlier work.
The test system of series [2] is hepatocellular carcinoma. Conditions: 50 mg q.d. in 4/2 weeks schedule, advanced HCC; cited from earlier work.
The nature of series [3]: Hematological toxicities in the phase II pilot study. In kind it is in vivo, human. As to conditions: HCC patients, 37.5 mg q.d.
For another series, the system named is HCC tumors. Put plainly: Tumor volume by DCE-MRI in HCC patients. In kind it is in vivo, human. As to conditions: duration of the trial, vs baseline.
The subject of series [4] is hepatocellular carcinoma. Conditions: phase III, HCC patients, compared to sorafenib; cited from earlier work.
In series [5] the test system is hepatocellular carcinoma. The experiment in a line: Time-to-tumor progression in HCC patients. Type of series: in vivo, human. Conditions: 37.5 mg q.d. with TACE (doxorubicin).
The next series concerns sVEGFR2. The experiment in a line: PD indirect response modeling of sVEGFR2 plasma concentrations. In kind it is in vivo, human. As to conditions: HCC patients, following treatment, mean baseline 15.7 µg/L.

`CCNCCNC(=O)c1c(C)[nH]c(/C=C2\C(=O)Nc3ccc(F)cc32)c1C` [SU12662]: the “fb, bound fraction to plasma protein” value in the series on plasma protein is on record as 0.95. Besides, in series [1] (fixed to literature value), the “Q/Fperipheral, intercompartmental clearance (RSE%)” value is reported as 27.7 (26) L/h and the “V2/Fperipheral, peripheral volume of distribution (RSE%)” value was 345 (22) L. The “potency relative to parent drug” value in the series on VEGFR is given as “equipotent to the parent drug”.
Turning to `CCN(CC)CCNC(=O)c1c(C)[nH]c(/C=C2\C(=O)Nc3ccc(F)cc32)c1C` [Sunitinib, Sunitinib malate], the “fb, bound fraction to plasma protein” value in the series with plasma protein is given as 0.9. The “median TTP” value with hepatocellular carcinoma [2] was 5.3 months. In addition, the hematological toxicities result in series [3] is recorded as “absence of hematological toxicities”. Further, in series [1] (fixed to literature value), the “Q/Fperipheral, intercompartmental clearance (RSE%)” value is 6.37 (18) L/h; the “V2/Fperipheral, peripheral volume of distribution (RSE%)” value is on record as 588 (8.7) L; the “ka, first-order absorption rate constant (RSE%)” value is recorded as 0.195 (6.8) 1/h. In addition, the “fM, fraction of drug metabolized into the active metabolite SU12662” value in series [1] (fixed) is on record as 0.21. For the same compound, in the series with HCC tumors, the “HCC tumor volumes under treatment” value is “remained relatively unchanged compared to their baseline values”. Moreover, in the series with hepatocellular carcinoma [4], the “primary overall survival endpoint” value is given as “failed its primary OS endpoint” and the toxicities result is listed as “more frequent toxicities than sorafenib”. Besides, the “median observed TTP” value with hepatocellular carcinoma [5] was 7 months and 8 months. For the same compound, the “observed plasma concentrations of sVEGFR2” value with sVEGFR2 is “gradually decreased over time”.
